Experimental findings from ChEMBL document CHEMBL1201862, “PubChem BioAssay data set” (2004) are described below.

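Protocol summary: plate cells (96-well), add compound at 5 concentrations, incubate 48 h, interpolate endpoints linearly. GI50 is the concentration that inhibits growth by half.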 Active and inactive are the calls of the source. Cut-off read from the data, not from the text of the source: active = GI50 up to about 1.1 µM and inactive = higher.

Some test systems named below: 786-0; ACHN; CCRF-CEM; COLO 205; EKVX; HL-60; K562; KM12; MOLT-4; Malme-3M; NCI-H226; NCI-H522; RPMI-8226; SK-MEL-2; SNB-19; SNB-75; SW-620; UACC-62; OVCAR-4.
Assay in all cases: NCI anticancer screen, dose series, 48 h

On to `NC(=O)OCC(COc1ccc(Cl)cc1)OC(=O)c1cc([N+](=O)[O-])cc([N+](=O)[O-])c1` (centres undefined), for which the GI50 is 41.6 µM (inactive) with 786-0; > 100 µM (inactive) with ACHN; 97.3 µM (inactive) with CCRF-CEM; 39 µM (inactive) in the assay on COLO 205; > 100 µM (inactive) with EKVX; > 100 µM (inactive) in the assay on HL-60. In addition, the GI50 in the assay on K562 was 37.2 µM (inactive); with KM12 it was > 100 µM (inactive); in the assay on MOLT-4, > 100 µM (inactive); in the assay on Malme-3M, > 100 µM (inactive); in the assay on NCI-H226 it was > 100 µM (inactive); in the assay on NCI-H522 it was 79.3 µM (inactive). Besides, the GI50 in the assay on RPMI-8226 is > 100 µM (inactive); with SK-MEL-2 it was 71.6 µM (inactive); with SNB-19, > 100 µM (inactive); in the assay with SNB-75 it was > 100 µM (inactive); in the assay on SW-620 it was 13.2 µM (inactive); with UACC-62, > 100 µM (inactive).

For the compound `C=CCCON(C(=O)OC(C)(C)C)c1ccccc1`, the GI50 in the assay with 786-0 is 74 µM (inactive); in the assay with ACHN, > 100 µM (inactive); in the assay on CCRF-CEM, 12.2 µM (inactive); in the assay on COLO 205, > 100 µM (inactive); in the assay on EKVX it was > 100 µM (inactive); in the assay on HL-60 it was 12.4 µM (inactive). For the same compound, the GI50 was > 100 µM (inactive) with K562; > 100 µM (inactive) with KM12; 42.6 µM (inactive) in the assay on MOLT-4; 20 µM (inactive) in the assay with Malme-3M; > 100 µM (inactive) in the assay with NCI-H226; 43.3 µM (inactive) in the assay on NCI-H522. The GI50 in the assay on RPMI-8226 was 6.44 µM (inactive); in the assay on SK-MEL-2 it was > 100 µM (inactive); in the assay on SNB-19 it was > 100 µM (inactive); in the assay with SNB-75, 82.6 µM (inactive); with SW-620 it was > 100 µM (inactive); in the assay with UACC-62, > 100 µM (inactive).

As for `CCOC(=O)C1(C#N)C(c2ccccc2)CC(O)(c2ccc(OC)cc2)C(C(=O)c2ccc(OC)cc2)C1c1ccccc1` (centres undefined), the GI50 with 786-0, in the assay on ACHN, in the assay on CCRF-CEM, with COLO 205, with EKVX and with HL-60 was > 100 µM (inactive) each time. Moreover, the GI50 with K562, in the assay with KM12, in the assay on MOLT-4, in the assay on Malme-3M, in the assay on NCI-H226 and with NCI-H522 was > 100 µM (inactive) throughout. The GI50 in the assay with OVCAR-4 was > 100 µM (inactive); in the assay with RPMI-8226, > 100 µM (inactive); with SK-MEL-2, > 100 µM (inactive); with SNB-19, 32.4 µM (inactive); in the assay with SNB-75 it was 27.7 µM (inactive); with SW-620 it was > 100 µM (inactive). In addition, the GI50 with UACC-62 is > 100 µM (inactive).

As for `C=C(C)C1Cc2c(cc(O)c3c(=O)c4ccccc4n(C)c23)O1` (centres undefined), the GI50 with ACHN was 40.9 µM (inactive); in the assay on CCRF-CEM it was 15.4 µM (inactive); in the assay with COLO 205, > 100 µM (inactive); in the assay with HL-60, 39 µM (inactive); with KM12, > 100 µM (inactive); in the assay on MOLT-4, > 100 µM (inactive). Further, the GI50 in the assay with Malme-3M was 64.4 µM (inactive); in the assay with NCI-H226, 37.1 µM (inactive); with NCI-H522 it was 19.9 µM (inactive); with OVCAR-4, 9.93 µM (inactive); with RPMI-8226, > 100 µM (inactive); in the assay on SK-MEL-2, 34.8 µM (inactive). For the same compound, the GI50 in the assay on SNB-19 was 13.9 µM (inactive); in the assay on SNB-75, 14.9 µM (inactive); in the assay with SW-620, 36 µM (inactive).

Consider `COc1cc(C)c(CC/C(C)=C/Cc2cc(O)ccc2O)c(C)c1C` [PANICEIN A HYDROQUINONE], for which the GI50 in the assay on 786-0 is > 25 µM (inactive); in the assay on ACHN it was > 25 µM (inactive); with CCRF-CEM it was 7.69 µM (inactive); in the assay on COLO 205 it was > 25 µM (inactive); in the assay on EKVX, > 25 µM (inactive); with HL-60, > 25 µM (inactive). The GI50 with K562, in the assay with KM12, in the assay with MOLT-4, in the assay with Malme-3M, with NCI-H226 and with NCI-H522 was > 25 µM (inactive) in each case. In addition, the GI50 in the assay with OVCAR-4, in the assay with RPMI-8226, with SK-MEL-2, with SNB-19, in the assay with SNB-75 and in the assay with SW-620 was > 25 µM (inactive) throughout.

`S=C=NCCc1ccccc1` [PHENETHYLISOTHIOCYANATE]: the GI50 in the assay on 786-0 is 0.188 µM (active); with ACHN, 1.56 µM (inactive); in the assay with CCRF-CEM, 0.186 µM (active); in the assay with COLO 205 it was 0.762 µM (active); with EKVX it was 16.8 µM (inactive); in the assay with HL-60 it was 0.385 µM (active). In addition, the GI50 was 0.226 µM (active) in the assay with K562; 0.239 µM (active) in the assay with KM12; 0.53 µM (active) with MOLT-4; 0.964 µM (active) with Malme-3M; 1.49 µM (inactive) in the assay on NCI-H226; 0.193 µM (active) in the assay on NCI-H522. The GI50 in the assay with OVCAR-4 is 2.14 µM (inactive); with RPMI-8226, 0.179 µM (active); in the assay with SK-MEL-2, 0.402 µM (active); with SNB-19, 1.73 µM (inactive); in the assay on SNB-75, 2.65 µM (inactive); in the assay with SW-620, 0.31 µM (active). For the same compound, the GI50 with UACC-62 was 0.839 µM (active).

As to `C=CCNC(=O)N(CCC)CCCC(NC(C)=O)C(=O)NCc1ccccc1` (centres undefined), the GI50 in the assay with 786-0, in the assay with ACHN, in the assay with CCRF-CEM, in the assay on COLO 205, in the assay with EKVX and with HL-60 was > 100 µM (inactive) in each case. Further, the GI50 is > 100 µM (inactive) in the assay on K562; > 100 µM (inactive) in the assay with KM12; > 100 µM (inactive) in the assay with MOLT-4; > 100 µM (inactive) in the assay with Malme-3M; 79.1 µM (inactive) with NCI-H226; > 100 µM (inactive) with NCI-H522. Further, the GI50 in the assay on OVCAR-4, in the assay with RPMI-8226, with SK-MEL-2, with SNB-19, with SNB-75 and in the assay on SW-620 was > 100 µM (inactive) each time. Moreover, in the assay with UACC-62, the GI50 was > 100 µM (inactive).

As for `CC1(Br)S(=O)(=O)OCCOS1(=O)=O`, the GI50 in the assay on 786-0, in the assay on ACHN, in the assay on CCRF-CEM, in the assay on COLO 205, in the assay on EKVX and in the assay on HL-60 was > 100 µM (inactive) in each case. The GI50 in the assay with K562, with MOLT-4, in the assay with Malme-3M, with NCI-H226, with NCI-H522 and with OVCAR-4 was > 100 µM (inactive) each time. The GI50 in the assay on RPMI-8226, in the assay on SK-MEL-2, with SNB-19, in the assay with SNB-75, in the assay on SW-620 and with UACC-62 was > 100 µM (inactive) each time.
